Experimental data: patent US8507464B2, “Phosphoramidate alkylator prodrugs” (Threshold Pharmaceuticals, Inc., priority 2005, dated 2013)
≈ marks a conversion by molar mass, not a printed value. Like-named read-outs stand apart in the source and are kept apart here.

How the values were obtained:
HT29 = assay: Clonogenic assay, hypoxia vs normoxia (Table 1B); conditions: Homo sapiens, HT-29, read-out: HT29 C H (clonogenic IC90, hypoxia)
[1] = Solubility in saline at room temperature; assay type: physicochemical; conditions: saline or isotonic
H460 cells = assay: Cell cycle distribution (flow cytometry); assay type: cell-based, human
HCT116 cells = assay: Multilayered cell culture (MCC) assay, inhibition of BrdU incorporation; assay type: cell-based; conditions: for IC50: Homo sapiens
Method: MCCs were incubated with oxygenated media (20% O2 & 5% O2) or hypoxic media (approximately 0% O2) and the test compound was exposed from one side (exposed surface, normoxic side) while the other side was temporarily closed off (far side, hypoxic side). When MCC's are incubated in media at 20% O2 or 5% O2 a gradient in oxygen develops from the surface exposed to the media towards the far surface of the culture. The furthest 50 μm of tissue becomes depleted of oxygen. The extent of O2 depletion is greater with 5% than the 20% O2 gassed media; incubation with 5% O2 reflects the in vivo situation most closely. Incubating MCCs with media at 0% O2 models perfusion limited hypoxia, where tumor blood vessels become completely depleted of oxygen and test compound must penetrate extensive distances to reach all cells. This situation therefore poses a greater barrier to drug penetration, if binding of activated drug acts to limit its penetration.
MCC based experiments were carried out with media gassed with 0, 5 or 20% O2 for 45 minutes prior to and during incubation with the test compound. HCT116 cells were grown to a thickness of 150 μm on a solid support and one side of the culture was clamped off to develop diffusion limited hypoxia. […] The cultures were incubated for a second hour in fresh media at 20% O2 and removed from the apparatus and returned to a normal growth chamber, where media flows over both sides of the MCC. Cultures were incubated for 24 hours prior to BrdUrd labeling and subsequent cryosectioning. BrdUrd labeling on the exposed and far sides of the MCC were analyzed using immunohistochemical staining, microscope imaging and computer image analysis to assess the effect of Compound 25 on cell proliferation.

[2] = test system: mouse (MLM) liver microsomal proteins; assay type: in vitro ADME; conditions: Table 1, first study, 5 μM
[3] = target: CYP2C19 (printed CYPC219) (Homo sapiens, UniProt P33261); assay: Cytochrome P450 inhibition; conditions: pH 7.4, probe (S)-mephenyloin
Method: (§1) A control reaction with no inhibitor was also prepared. After a suitable incubation at 37° C., the reactions were terminated by the addition of […] of 10% formic acid in water ([…] of acetonitrile for 2C19). […] Each assay was performed in duplicate.

CYP2C9 = CYP2C9 (Homo sapiens, UniProt P11712); assay: Cytochrome P450 inhibition; conditions: pH 7.4
Method: as §1

NCI H460 xenograft = assay: H460 xenograft mouse model with CDDP (Example 51); assay type: in vivo; conditions: 50 mg/kg daily or 100 mg/kg every three days, saline formulation
Method: Female CB17/SCID mice (purchased from Charles River, Cambridge, Mass.), 7-8 weeks of age, were allowed to acclimatize for at least three days, and handled under pathogen-free conditions. Human non-small cell lung carcinoma cell line NCI H460 was obtained from the American Type Culture Collection. The cell lines were cultured and harvested as described in Example 47 above, and inoculated at 3×10^6 cells/animal in the peritoneal subcutaneous space. When the tumors grew to an average volume of 100 mm^3, treatment was initiated in which groups of 10 mice received vehicle (Group 1), CDDP at 3 or 6 mg/kg (Groups 2 and 3, respectively, IV one time), Compound 25 at 50 mg/kg in saline 5 times per week for two weeks (Group 4), Compound 25 at 100 mg/kg every three days for 5 times (Group 5) or the combination of each dose of Compound 25 with either 3 or 6 mg/kg of CDDP (Groups 6 and 7, respectively). Results for groups receiving 50 mg/kg of Compound 25 are illustrated in the FIG. 1.

[4] = Preliminary toxicity in mice (Example 56); assay type: in vivo
From the text: It is recognized that efficacious molecules for treatment of human diseases including cancer may be toxic at doses near or sometime much greater than doses necessary to achieve beneficial effects. To determine appropriate dose and route of administering such a compound, it is necessary to understand its toxicity. Routinely, initial approaches to determining the toxic dose involve the use of rodents such as mice to provide preliminary data that might support the design of similar studies in larger animals and humans. Test compounds (Compounds 24, 25 and 36) were tested in mice as preliminary experiments for determining doses to be used in larger animals. […] These doses selected represent an approximation of doses that might be used in larger animals such as rats and dogs for the purpose of confirming that such toxicities exist and for predicting if renal function should be measured in humans.

NCI-H460 cells = assay: Clonogenic assay - oxygen dependence; conditions: Homo sapiens

Chain of CYP2C9 (P11712 whole entry): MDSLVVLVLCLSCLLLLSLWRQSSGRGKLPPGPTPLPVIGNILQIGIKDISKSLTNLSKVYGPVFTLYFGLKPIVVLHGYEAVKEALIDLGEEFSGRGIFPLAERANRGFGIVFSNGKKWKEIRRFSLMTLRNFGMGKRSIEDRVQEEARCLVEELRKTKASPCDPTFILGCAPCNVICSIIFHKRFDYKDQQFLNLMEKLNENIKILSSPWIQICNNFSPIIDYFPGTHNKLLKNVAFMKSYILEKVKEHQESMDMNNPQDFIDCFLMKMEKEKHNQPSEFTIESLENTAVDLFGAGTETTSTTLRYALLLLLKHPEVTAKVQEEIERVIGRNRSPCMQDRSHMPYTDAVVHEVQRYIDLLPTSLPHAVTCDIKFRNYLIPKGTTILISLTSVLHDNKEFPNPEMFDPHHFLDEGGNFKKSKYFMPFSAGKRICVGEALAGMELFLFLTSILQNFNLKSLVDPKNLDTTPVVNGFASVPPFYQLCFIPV
Chain of CYP2C19 (printed CYPC219) (P33261 whole entry): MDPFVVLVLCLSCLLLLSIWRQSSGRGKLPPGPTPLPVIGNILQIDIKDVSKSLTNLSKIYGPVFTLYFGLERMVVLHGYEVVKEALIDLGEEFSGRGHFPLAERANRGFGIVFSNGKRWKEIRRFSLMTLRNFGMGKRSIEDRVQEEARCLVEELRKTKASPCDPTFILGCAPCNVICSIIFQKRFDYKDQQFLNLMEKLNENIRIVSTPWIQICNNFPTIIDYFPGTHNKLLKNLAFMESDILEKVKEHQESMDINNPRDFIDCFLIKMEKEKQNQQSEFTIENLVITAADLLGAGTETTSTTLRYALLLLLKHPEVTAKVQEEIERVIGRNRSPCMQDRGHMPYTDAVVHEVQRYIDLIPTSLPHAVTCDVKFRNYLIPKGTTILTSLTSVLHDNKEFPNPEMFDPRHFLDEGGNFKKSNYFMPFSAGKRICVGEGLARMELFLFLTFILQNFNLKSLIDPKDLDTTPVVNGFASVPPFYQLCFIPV

Compound: Cn1c(COP(=O)(NCCCl)NCCCl)cnc1[N+](=O)[O-] [Compound 36]
- IC90 (HT29): 3000 nM

Compound: Cn1c(COP(=O)(NCCBr)NCCBr)cnc1[N+](=O)[O-] [Compound 25]
- solubility [1]: 15 mg/mL (≈ 33.4 mM)
- Cell cycle G0/G1 (H460 cells; 0.005 μM, Air): 38
- Cell cycle G2/M (H460 cells; 0.005 μM, Air): 42
- Cell cycle S (H460 cells; 0.005 μM, Air): 18
- Cell cycle G0/G1 (H460 cells; 0.005 μM, Nitrogen): 50
- Cell cycle G2/M (H460 cells; 0.005 μM, Nitrogen): 38
- Cell cycle S (H460 cells; 0.005 μM, Nitrogen): 12
- Cell cycle G0/G1 (H460 cells; 0.05 μM, Air): 58
- Cell cycle G2/M (H460 cells; 0.05 μM, Air): 28
- Cell cycle S (H460 cells; 0.05 μM, Air): 11
- Cell cycle G0/G1 (H460 cells; 0.05 μM, Nitrogen): 30
- Cell cycle G2/M (H460 cells; 0.05 μM, Nitrogen): 59
- Cell cycle S (H460 cells; 0.05 μM, Nitrogen): 7
- Cell cycle G0/G1 (H460 cells; 0.5 μM, Air): 58
- Cell cycle G2/M (H460 cells; 0.5 μM, Air): 28
- Cell cycle S (H460 cells; 0.5 μM, Air): 11
- Cell cycle G0/G1 (H460 cells; 0.5 μM, Nitrogen): 23
- Cell cycle G2/M (H460 cells; 0.5 μM, Nitrogen): 40
- Cell cycle S (H460 cells; 0.5 μM, Nitrogen): 31
- Cell cycle G0/G1 (H460 cells; 5 μM, Air): 42
- Cell cycle G2/M (H460 cells; 5 μM, Air): 59
- Cell cycle S (H460 cells; 5 μM, Air): 6
- Cell cycle G0/G1 (H460 cells; 5 μM, Nitrogen): 47
- Cell cycle G2/M (H460 cells; 5 μM, Nitrogen): 17
- Cell cycle S (H460 cells; 5 μM, Nitrogen): 15
- Cell cycle G0/G1 (H460 cells; 50 μM, Air): 14
- Cell cycle G2/M (H460 cells; 50 μM, Air): 65
- Cell cycle S (H460 cells; 50 μM, Air): 19
- Cell cycle G0/G1 (H460 cells; 50 μM, Nitrogen): 33
- Cell cycle G2/M (H460 cells; 50 μM, Nitrogen): 11
- Cell cycle S (H460 cells; 50 μM, Nitrogen): 14
- fold reduction in exposure to the hypoxic side under 0% O2 relative to 5% O2 (HCT116 cells; 0% O2 vs 5% O2): Approximately 3 fold
- fold more effective at inhibiting BrdU incorporation on the hypoxic side compared to the normoxic side (HCT116 cells; 5% O2): 10 fold
- fold less compound required on the far (hypoxic) side compared to the exposed (normoxic) side (HCT116 cells; 20% O2): 5 fold
- IC50 (HCT116 cells; HCT-116, read-out: IC50 (BrdU), Hypoxic side, 5% O2): 700 nM
- IC50 (HCT116 cells; HCT-116, read-out: IC50 (BrdU), Hypoxic side, 20% O2): 2600 nM
- IC50 (HCT116 cells; HCT-116, read-out: IC50 (BrdU), Normoxic side, 5% O2): 8000 nM
- IC50 (HCT116 cells; HCT-116, read-out: IC50 (BrdU), Normoxic side, 20% O2): > 10000 nM
- IC50 (HCT116 cells; HCT-116, read-out: IC50 (inhibit BrdU incorporation by 50%), Hypoxic side, 0% O2): ~1100 nM
- IC50 (HCT116 cells; HCT-116, read-out: IC50 (BrdU), Normoxic side, 0% O2): ~1700 nM
- Metabolic stability (% at 30 min) MLM [2]: 89%
- IC50 [3]: > 50000 nM
- IC50 (CYP2C9): ~10000 nM
- tumor volume and tumor growth delay (NCI H460 xenograft): significant dose related decrease in tumor volume and increase in tumor growth delay
- white blood cells [4]: Transient reductions in white blood cells
- toxicity at 300 mg/kg single dose ([4]; 300 mg/kg single dose): renal toxicities such as tubular necrosis and protein spillage into the urine
- toxicity at lower doses (100 and 200 mg/kg) ([4]; 100 and 200 mg/kg): little toxicity
- IC90 (NCI-H460 cells; NCI-H460, read-out: IC90 H460 0.1% O2): 400 nM
- IC90 (NCI-H460 cells; NCI-H460, read-out: IC90 H460 0.6% O2): 5000 nM
- IC90 (NCI-H460 cells; NCI-H460, read-out: IC90 H460 Air): 30000 nM
- IC90 (NCI-H460 cells; NCI-H460, read-out: IC90 H460 N2): 100 nM
